In patent publication US20140227289A1, “COMPOUNDS AND METHODS FOR TREATING INSULIN RESISTANCE SYNDROME” (priority 2011, published 2014):

Key:
human AGS cells = assay: Quantitative RT-PCR of FOXO target mRNAs in human AGS cells under ER stress; assay type: cell-based
Experimental: (§1) The expression of certain mRNAs was measured by quantitative reverse transcription polymerase chain reaction (RT-PCR). In this example, the mRNA was extracted and purified using RNeasy Mini Kit (Qiagen, Netherlands) with DNase to eliminate genomic DNA contamination. Reverse transcription to synthesize the first strand utilized oligo-dT primers. The mRNAs measured are known FOXO targets: […] (CHOP), Bim (anti- or pro-apoptotic regulators), Growth Arrest and DNA Damage gene (GADD45) and PERK. Bip2, which is not a FOXO target, was also measured as a control. Results were normalized to Kinesin mRNA.
Dimethyl sulfoxide (DMSO)-treated human AGS cells were used as a control, denoted as “ctrl”. The human AGS cells were grown in Roswell Park Memorial Institute (RPMI) media supplemented with 10% FBS, and treated with 10 μg/ml tunicamycin dissolved in DMSO at 1 mg/ml for 4 hours to induce ER stress. The tunicamycin treated cells are denoted as “TM”.
Quantitative RT-PCR was performed to show the relative level of the indicated human mRNA targets. The results are shown in FIG. 5A where normalized levels of mRNA transcripts were measured for the “TM” cells compared to the “ctrl” cells. […] It can be concluded that ER stress induces the expression of Bip2, CHOP, Bim and GADD45.
(§2) The tunicamycin treated (“TM”) cells were further treated with siRNA treatment to deplete PERK from human AGS cells. The siRNA sequence used was 5′-[…]-3′ (SEQ ID NO: 1). The siRNA was transfected into cells using HiPerFect reagent (Qiagen, Netherlands) for 3 days before tunicamycin treatment. The PERK-depleted cells are denoted as “PERK RNAi+TM”.
(§3) Quantitative RT-PCR was performed to show the relative level of the indicated human mRNA targets. The results are shown in FIG. 5B where normalized levels of the target mRNA transcripts were measured for the “TM” cells compared with the “PERK RNAi+TM” cells. The levels of these target mRNAs in PERK-depleted (“PERK RNAi+TM”) cells were normalized to the levels of tunicamycin-treated (“TM”) control cells.

FOXO-GFP = FOXO-GFP subcellular localization assay in Drosophila S2 cells; assay type: cell-based; conditions: 10 μg/ml of insulin for 30 min, serum free medium
Experimental: A FOXO-green fluorescent (GFP) fusion protein was expressed in Drosophila S2 cells by transient transfection. The Drosophila cells were grown in serum free medium and deprived of insulin. The transfected cells were treated with 10 μg/ml of insulin for 30 min and the subcellular localization of FOXO-GFP was scored by obtaining images of the FOXO-GFP expressing cells. The insulin treated cells were named sample (b). A control sample (a) was obtained by having no insulin treatment to the transfected cells. In sample (c), ER stress was induced by RNA interference (RNAi) to disrupt endoplasmic-reticulum-associated-protein degradation (ERAD) machinery. The disruption of ERAD machinery was done by treatment of dsRNA to deplete HMG-CoA reductase degradation protein 3 (Hrd3), thereby inducing ER stress. Thereafter, the cells were treated with insulin 4 days after the dsRNA treatment. In sample (d), ER stress was induced by dsRNA treatment to deplete Hrd3. PERK protein was also depleted using dsRNA treatment. Thereafter, the cells were treated with insulin 4 days after the dsRNA treatment.
The results are shown in FIG. 2, where N means predominantly nuclear, C means predominantly cytoplasmic and CN means both nuclear and cytoplasmic. […]

PERK = assay: siRNA depletion of PERK in human AGS cells, quantitative RT-PCR; assay type: cell-based; conditions: siRNA transfected 3 days before tunicamycin treatment
Experimental: as §1, §2, §3

human Foxo1 = assay: Foxo1 luciferase reporter assay in human H1299 cells; assay type: cell-based; conditions: 1 μM
Experimental: Human H1299 cells were transfected to express human Foxo1 (“FOXO1”) and co-transfected to express PERK (“FOXO1+PERK”). The transfected H1299 cells were treated with 1 μM PERK kinase inhibitor (“FOXO1+inhibitor” and “FOXO1+PERK+inhibitor”). The PERK kinase inhibitor has the chemical formula: 5-Bromo-N4-2-pyridinyl-N2-[3-(1,2,3,6-tetrahydro-4-pyridinyl)-1H-indol-5-yl]-2,4-pyrimidinediamine. The activity of the Foxo1 luciferase reporter gene was then measured in terms of normalized IRS-luciferase levels.

MCF-7 cells = assay: Expression of endogenous Foxo1 targets in serum starved, PI3K inhibited MCF-7 cells; assay type: cell-based, human; conditions: serum starved+LY+PERK inhibition vs serum starved+LY
Experimental: To test the effects of PERK inhibition on endogenous Foxo1 targets, the cells were serum starved to remove growth factors and treated with the PI3K inhibitor LY294002 (50 μM) to further reduce AKT activity (“serum starved+LY”) for 4 hours. This treatment can be viewed as a model for extreme insulin resistance, in that it removes the capacity of the cell to respond insulin signaling by activating AKT. Control cells were grown in DMEM supplemented with 10% FBS (“control with serum”). The endogenous human FOXO targets are BIM gene (a pro-apoptotic member of the BCL-2 protein family), Cyclin G2 gene (encoding a cyclin that blocks cell cycle entry), insulin receptor substrate 2 gene (IRS-2; encoding a cytoplasmic signaling molecule that mediates effects of insulin), p27KIP1 gene (encoding a cell cycle regulatory protein), pyruvate dehydrogenase lipoamide kinase isozyme 4 gene (PDK4; encoding a protein that inhibits the pyruvate dehydrogenase complex), phosphoenolpyruvate carboxykinase 2 (PCK2; encoding a mitochondrial enzyme), p21 gene (encoding a cyclin-dependent kinase inhibitor) and insulin receptor gene (INSR). The rp132 gene (a ribosomal protein gene) and the mActin gene (encoding a muscle-specific type actin) are not FOXO targets and were used as controls. […]

HEPG2 hepatocyte cells = assay: Expression of FOXO targets in serum starved, PI3K inhibited HEPG2 hepatocyte cells; assay type: cell-based, human; conditions: serum starved+LY+PERK inhibition vs serum starved+LY
Experimental: To test the effects of PERK inhibition on endogenous Foxo1 targets, the cells were serum starved to remove growth factors and treated with the PI3K inhibitor LY294002 (50 μM) to further reduce AKT activity (“serum starved+LY”) for 4 hours. This treatment can be viewed as a model for extreme insulin resistance, in that it removes the capacity of the cell to respond insulin signaling by activating AKT. Control cells were grown in DMEM supplemented with 10% FBS (“control with serum”). The endogenous human FOXO targets are BIM gene (a pro-apoptotic member of the BCL-2 protein family), Cyclin G2 gene (encoding a cyclin that blocks cell cycle entry), insulin receptor substrate 2 gene (IRS-2; encoding a cytoplasmic signaling molecule that mediates effects of insulin), p27KIP1 gene (encoding a cell cycle regulatory protein), pyruvate dehydrogenase lipoamide kinase isozyme 4 gene (PDK4; encoding a protein that inhibits the pyruvate dehydrogenase complex), phosphoenolpyruvate carboxykinase 2 (PCK2; encoding a mitochondrial enzyme), p21 gene (encoding a cyclin-dependent kinase inhibitor) and insulin receptor gene (INSR). The rp132 gene (a ribosomal protein gene) and the mActin gene (encoding a muscle-specific type actin) are not FOXO targets and were used as controls. […] Example 11A was repeated with HEPG2 hepatocyte cells instead.

HEPG2 liver cells = assay: Foxo1 target gene expression in palmitate treated (insulin resistant) HEPG2 liver cells; assay type: cell-based, human; conditions: palmitate treated cells further treated with PERK kinase inhibitor
Experimental: HEPG2 liver cells were treated with 0.75 mM of palmitate, a saturated fatty acid, for 17 hours to induce insulin resistance, and the effects of PERK inhibition were assessed by monitoring Foxo1 target gene expression. The Foxo1 target genes are pyruvate dehydrogenase lipoamide kinase isozyme 4 gene (PDK4; encoding a protein that inhibits the pyruvate dehydrogenase complex) and phosphoenolpyruvate carboxykinase 1 (PCK1; encoding […]).
The results are shown in FIG. 12A, where the data was normalized to Kinesin mRNA levels and to the level of the rp132 control mRNAs.
The palmitate treated cells were further treated by inhibiting PERK kinase inhibitor 5-Bromo-N4-2-pyridinyl-N2-[3-(1,2,3,6-tetrahydro-4-pyridinyl)-1H-indol-5-yl]-2,4-pyrimidinediamine.
The results are shown in FIG. 12B, where the data was normalized to Kinesin mRNA levels and to the level of the rp132 control mRNAs. It can be seen that PERK inhibition decreased the expression of the Foxo1 targets, PDK4 and PCK1.

human Foxo1 (human) = human Foxo1 (human) (UniProt Q12778); assay: cell-based or functional assay
Chain of UniProt Q12778 (Q12778 whole entry): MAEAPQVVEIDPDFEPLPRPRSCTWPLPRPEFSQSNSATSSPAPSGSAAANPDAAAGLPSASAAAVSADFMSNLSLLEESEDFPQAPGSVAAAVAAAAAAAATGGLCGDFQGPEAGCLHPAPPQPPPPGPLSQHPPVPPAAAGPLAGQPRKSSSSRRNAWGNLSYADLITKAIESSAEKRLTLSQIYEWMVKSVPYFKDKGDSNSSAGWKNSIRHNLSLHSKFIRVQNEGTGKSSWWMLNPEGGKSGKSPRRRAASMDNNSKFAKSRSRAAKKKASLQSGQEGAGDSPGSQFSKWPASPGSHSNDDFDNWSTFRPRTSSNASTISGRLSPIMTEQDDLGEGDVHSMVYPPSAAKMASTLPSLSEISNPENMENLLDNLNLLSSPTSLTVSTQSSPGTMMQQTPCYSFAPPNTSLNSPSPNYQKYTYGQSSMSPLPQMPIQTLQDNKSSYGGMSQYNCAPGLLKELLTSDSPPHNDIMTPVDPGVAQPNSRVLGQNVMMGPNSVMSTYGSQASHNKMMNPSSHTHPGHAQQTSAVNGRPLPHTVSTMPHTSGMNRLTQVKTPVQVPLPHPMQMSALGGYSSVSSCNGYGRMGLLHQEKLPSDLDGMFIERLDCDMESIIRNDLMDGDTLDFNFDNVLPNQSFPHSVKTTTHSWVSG

[1] = PERK RNAi+TM cells compared with TM cells

Compound: tunicamycin [TM, reference compound]
- levels of Bip2, CHOP, Bim and GADD45 mRNA transcripts compared to ctrl cells (human AGS cells; 10 μg/ml tunicamycin for 4 hours, normalized to Kinesin mRNA): significantly higher

Compound: insulin
- location of FOXO-GFP both nuclear and cytoplasmic (FOXO-GFP): about 30 % of cells
- location of FOXO-GFP cytoplasmic (FOXO-GFP): about 70 % of cells

Compound: 5′-CAAACUGUAUAACGGUUUATT-3′ [PERK RNAi]
- degree of induction of Foxo1 targets CHOP, Bim and GADD45 (human AGS cells; [1]): reducing the degree of induction
- levels of Bip2 transcripts (not a FOXO target) (human AGS cells; [1]): comparable
- decrease of PERK levels compared to TM cells (PERK): more than 80%

Compound: Brc1cnc(Nc2ccc3[nH]cc(C4=CCNCC4)c3c2)nc1Nc1ccccn1 [PERK kinase inhibitor, 5-Bromo-N4-2-pyridinyl-N2-[3-(1,2,3,6-tetrahydro-4-pyridinyl)-1H-indol-5-yl]-2,4-pyrimidinediamine]
- level of Foxo1 activity with co-expressed PERK (normalized IRS-luciferase levels) (human Foxo1; FOXO1+PERK vs FOXO1+PERK+inhibitor): reduced the level of Foxo1 activity
- activity of Foxo1 alone (normalized IRS-luciferase levels) (human Foxo1; FOXO1 vs FOXO1+inhibitor): did not affect
- target genes expression (BIM, Cyclin G2, IRS-2, p27KIP1, PDK4) (MCF-7 cells): reducing the target genes expression
- expression of rp132 and mActin (not FOXO target genes) (HEPG2 hepatocyte cells): did not reduce
- target genes expression (p27, PDK, Cyclin G, PCK2, p21, INSR) (HEPG2 hepatocyte cells): reduced the target genes expression
- expression of the Foxo1 targets PDK4 and PCK1 (HEPG2 liver cells): decreased
- levels of rp123 and mActin (not Foxo1 targets) (HEPG2 liver cells): not substantially altered

Compound: human protein kinase RNA-like endoplasmic reticulum kinase (PERK) protein (from UniProt Q9NZJ5 30-1116) (enzyme)
- normalized luciferase levels of the human Foxo1 luciferase reporter (human Foxo1 (human)): 2 fold
